Reference: patent US10940155B2, “Oral quetiapine suspension formulations with extended shelf life and enhanced bioavailability” (TLC THERAPEUTICS, LLC, priority 2017, dated 2021)
Where a name gives a salt, the structure may show the parent alone. Read-outs that look alike come from different tables or passages of the source.

Tests used:
[1] = due to extensive first-pass metabolism; cited from earlier work

solubility (pH 2): 1.499 g/5 ml | solubility (pH 3): 952.1 mg/5 ml
Structure (SMILES): OCCOCCN1CCN(C2=Nc3ccccc3Sc3ccccc32)CC1 [quetiapine fumarate, 2-[2-(4-dibenzo [b,f][1,4]thiazepin-11-yl-1-piperazinyl)ethoxy]-ethanol fumarate (2:1)]
oral bioavailability [1]: poor
